In ChEMBL document CHEMBL1125066, “Phosphoramidate peptide inhibitors of human skin fibroblast collagenase” (J Med Chem, 1990):
Square brackets hold non-standard residues; d marks the D form. Peptide text beside a SMILES is read from it. * marks the point of attachment. Arg(NO2) = N=C(NCCC[C@H](N)C(=O)O)N[N+](=O)[O-]; X1 = CCOP(=O)(O)N[C@H](C(=O)*)[C@@H](C)CC

Experiments:
Interstitial collagenase [1] = biological target: T1, Interstitial collagenase (Homo sapiens, UniProt P03956); experiment: Assayed against human skin fibroblast Collagenase using the spectrophotometric assay with the thiol ester substrate at pH 6.5.
T1 sequence (P03956 whole entry): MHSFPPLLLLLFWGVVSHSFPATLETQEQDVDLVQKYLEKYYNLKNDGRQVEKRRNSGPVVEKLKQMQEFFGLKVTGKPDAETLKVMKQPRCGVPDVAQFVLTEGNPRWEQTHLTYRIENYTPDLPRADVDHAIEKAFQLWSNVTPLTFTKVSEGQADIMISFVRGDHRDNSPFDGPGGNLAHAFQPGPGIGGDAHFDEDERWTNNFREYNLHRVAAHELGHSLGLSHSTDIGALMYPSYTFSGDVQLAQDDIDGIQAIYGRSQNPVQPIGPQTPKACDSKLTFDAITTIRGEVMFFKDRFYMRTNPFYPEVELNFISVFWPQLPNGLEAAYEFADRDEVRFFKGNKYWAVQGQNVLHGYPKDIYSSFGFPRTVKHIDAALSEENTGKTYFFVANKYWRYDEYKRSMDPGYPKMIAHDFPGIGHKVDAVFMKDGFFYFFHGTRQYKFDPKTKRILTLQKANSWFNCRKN

Interstitial collagenase [2] = biological target: T1, Interstitial collagenase; experiment: Inhibition of human skin fibroblast Collagenase at pH 7.5
Collagenase ColA = biological target: T2, Collagenase ColA (Bacteria, UniProt P43153); experiment: Inhibition of bacterial Collagenase; parameters: species or system Hathewaya histolytica
T2 sequence (P43153 whole entry): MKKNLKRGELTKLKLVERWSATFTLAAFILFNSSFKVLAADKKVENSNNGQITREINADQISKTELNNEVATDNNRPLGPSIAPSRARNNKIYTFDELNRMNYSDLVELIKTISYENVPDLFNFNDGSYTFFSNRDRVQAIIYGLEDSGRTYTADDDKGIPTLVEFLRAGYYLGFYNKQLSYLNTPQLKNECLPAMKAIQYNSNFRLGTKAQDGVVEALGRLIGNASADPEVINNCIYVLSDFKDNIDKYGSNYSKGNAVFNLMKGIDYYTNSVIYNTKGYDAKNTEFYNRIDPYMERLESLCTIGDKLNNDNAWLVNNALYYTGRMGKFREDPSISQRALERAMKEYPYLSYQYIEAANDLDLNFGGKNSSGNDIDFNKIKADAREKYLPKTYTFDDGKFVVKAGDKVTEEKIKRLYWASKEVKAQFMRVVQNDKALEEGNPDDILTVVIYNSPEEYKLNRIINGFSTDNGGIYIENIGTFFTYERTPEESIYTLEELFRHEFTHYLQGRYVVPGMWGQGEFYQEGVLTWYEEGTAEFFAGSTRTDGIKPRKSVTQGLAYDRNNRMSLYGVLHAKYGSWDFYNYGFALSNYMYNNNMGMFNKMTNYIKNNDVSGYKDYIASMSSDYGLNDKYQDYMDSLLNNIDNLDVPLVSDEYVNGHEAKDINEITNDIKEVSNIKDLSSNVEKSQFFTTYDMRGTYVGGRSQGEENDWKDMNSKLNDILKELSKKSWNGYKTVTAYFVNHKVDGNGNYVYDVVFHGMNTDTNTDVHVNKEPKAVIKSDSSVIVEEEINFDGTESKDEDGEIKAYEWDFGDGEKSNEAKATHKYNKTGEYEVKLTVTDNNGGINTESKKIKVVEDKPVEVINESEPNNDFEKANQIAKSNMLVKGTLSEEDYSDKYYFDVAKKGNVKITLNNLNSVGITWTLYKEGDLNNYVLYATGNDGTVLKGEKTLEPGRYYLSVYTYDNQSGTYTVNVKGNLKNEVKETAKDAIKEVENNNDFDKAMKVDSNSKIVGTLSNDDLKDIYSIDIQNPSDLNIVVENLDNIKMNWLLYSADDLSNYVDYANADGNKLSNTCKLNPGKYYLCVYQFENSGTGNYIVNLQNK

[3] = biological target: T3, Angiotensin-converting enzyme (Oryctolagus cuniculus, UniProt P12822); experiment: Inhibitory activity against Angiotensin I converting enzyme
T3 sequence (P12822 whole entry): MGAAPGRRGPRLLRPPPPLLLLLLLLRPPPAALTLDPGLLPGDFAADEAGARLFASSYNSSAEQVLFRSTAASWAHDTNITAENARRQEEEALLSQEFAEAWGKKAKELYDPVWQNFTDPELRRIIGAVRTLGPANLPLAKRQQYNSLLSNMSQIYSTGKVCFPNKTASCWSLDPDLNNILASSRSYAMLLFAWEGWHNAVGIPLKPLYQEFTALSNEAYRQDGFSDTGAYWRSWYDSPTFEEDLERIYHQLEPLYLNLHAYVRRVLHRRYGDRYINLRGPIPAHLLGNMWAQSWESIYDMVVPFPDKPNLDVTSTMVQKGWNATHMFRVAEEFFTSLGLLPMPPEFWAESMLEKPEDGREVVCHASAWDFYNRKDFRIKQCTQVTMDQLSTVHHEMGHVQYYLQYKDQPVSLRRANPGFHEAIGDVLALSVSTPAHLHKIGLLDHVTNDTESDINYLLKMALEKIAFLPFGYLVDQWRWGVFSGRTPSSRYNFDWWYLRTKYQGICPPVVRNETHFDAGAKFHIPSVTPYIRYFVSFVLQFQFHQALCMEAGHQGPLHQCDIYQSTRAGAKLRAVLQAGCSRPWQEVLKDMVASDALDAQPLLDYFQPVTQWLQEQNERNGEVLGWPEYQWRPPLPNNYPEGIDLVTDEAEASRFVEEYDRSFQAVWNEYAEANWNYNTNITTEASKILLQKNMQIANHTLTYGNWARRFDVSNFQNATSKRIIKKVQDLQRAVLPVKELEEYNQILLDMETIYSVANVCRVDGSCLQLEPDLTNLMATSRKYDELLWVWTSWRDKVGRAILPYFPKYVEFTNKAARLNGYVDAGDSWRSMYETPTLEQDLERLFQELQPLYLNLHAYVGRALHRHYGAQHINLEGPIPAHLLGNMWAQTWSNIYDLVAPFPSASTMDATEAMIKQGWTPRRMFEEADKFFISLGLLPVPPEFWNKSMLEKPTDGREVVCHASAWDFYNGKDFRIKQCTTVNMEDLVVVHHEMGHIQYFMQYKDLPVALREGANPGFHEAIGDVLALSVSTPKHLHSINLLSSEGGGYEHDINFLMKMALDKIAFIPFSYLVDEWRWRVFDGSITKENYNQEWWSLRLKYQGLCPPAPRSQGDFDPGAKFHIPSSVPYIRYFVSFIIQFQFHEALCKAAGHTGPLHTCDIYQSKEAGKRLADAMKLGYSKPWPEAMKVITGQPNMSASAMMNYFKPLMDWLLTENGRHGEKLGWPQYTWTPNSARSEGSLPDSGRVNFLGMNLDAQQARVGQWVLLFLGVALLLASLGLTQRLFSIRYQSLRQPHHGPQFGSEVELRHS

SMILES | Ki (Interstitial collagenase [1]) [µM] | other results
CCOP(=O)(O)N[C@H](C(=O)NC(Cc1ccc(OC)cc1)C(=O)NC)[C@@H](C)CC (some centres undefined) | 31 | 
CCOP(=O)(O)N[C@H](C(=O)NC(Cc1c[nH]c2ccccc12)C(=O)NC)[C@@H](C)CC (some centres undefined) | 1.5 | Ki (Interstitial collagenase [2]): 0.9 µM; Ki (Collagenase ColA): > 5000 µM
CCOP(=O)(O)N[C@H](C(=O)NC(Cc1ccc(OCc2ccccc2)cc1)C(=O)NC)[C@@H](C)CC (some centres undefined) | 18 | 
CCOP(=O)(O)N[C@H](C(=O)NC(Cc1ccc(OCc2ccccc2)cc1)C(=O)NCC(=O)O)[C@@H](C)CC (some centres undefined) | 6.7 | Ki (Collagenase ColA): > 5 µM; Ki [3]: 0.2 µM
CCOP(=O)(O)N[C@H](C(=O)N[C@@H](Cc1ccc(OCC(=O)NCc2ccccc2)cc1)C(=O)NCC(=O)O)[C@@H](C)CC | 16 | 
CCOP(=O)(O)N[C@H](C(=O)N[C@@H](Cc1ccc(OCc2cc(Cl)cc(Cl)c2)cc1)C(=O)NCC(=O)O)[C@@H](C)CC | 5.7 | Ki (Interstitial collagenase [2]): 13 µM
CCOP(=O)(O)N[C@H](C(=O)NC(Cc1ccc(OC2CCCCO2)cc1)C(=O)NCC(=O)O)[C@@H](C)CC (some centres undefined) | 25 | 
CCOP(=O)(O)N[C@H](C(=O)N[C@@H](Cc1ccc(OCC(=O)O)cc1)C(=O)NCC(=O)O)[C@@H](C)CC | 32 | 
CCOP(=O)(O)N[C@H](C(=O)N[C@@H](Cc1ccc(OCC(=O)N[C@@H](CCCCN)C(=O)O)cc1)C(=O)NCC(=O)O)[C@@H](C)CC | 50 | 
CCOP(=O)(O)N[C@H](C(=O)N[C@@H](Cc1ccc(OCC(=O)N(Cc2ccccc2)Cc2ccccc2)cc1)C(=O)NCC(=O)O)[C@@H](C)CC | 27 | 
CCOP(=O)(O)N[C@H](C(=O)N[C@@H](Cc1ccc(OCc2ccccc2)cc1)C(=O)N[C@@H](Cc1ccccc1)C(=O)O)[C@@H](C)CC | 120 | 
CCOP(=O)(O)N[C@H](C(=O)N[C@@H](Cc1ccc(O)cc1)C(=O)NCC(=O)O)[C@@H](C)CC | 22 | 
CCOP(=O)(O)N[C@H](C(=O)N[C@@H](Cc1c[nH]c2ccccc12)C(=O)NCC(=O)O)[C@@H](C)CC | 13 | 
CCOP(=O)(O)N[C@H](C(=O)N[C@@H](C)C(=O)NCC(=O)O)[C@@H](C)CC | 130 | Ki (Interstitial collagenase [2]): 147 µM
CCOP(=O)(O)N[C@@H](CC(C)C)C(=O)N[C@@H](C)C(=O)NCC(=O)O | 140 | 
CCOP(=O)(O)N[C@H](C(=O)N[C@@H](CC(C)C)C(=O)NCC(=O)O)[C@@H](C)CC | 49 | 
CCOP(=O)(O)N[C@H](C(=O)N[C@@H](C)C(=O)NCC(=O)N[C@@H](CC(C)C)C(=O)O)[C@@H](C)CC | 240 | 
CCOP(=O)(O)N[C@H](C(=O)N[C@@H](Cc1ccccc1)C(=O)NCC(=O)O)[C@@H](C)CC | 29 | 
CCOP(=O)(O)N[C@H](C(=O)N[C@@H](Cc1ccc(N)cc1)C(=O)NCC(=O)O)[C@@H](C)CC | 19 | 
CCOP(=O)(O)N[C@H](C(=O)N[C@@H](C)C(=O)NCC(=O)N[C@@H](CCC(=O)O)C(=O)N[C@@H](CCCN=C(N)N)C(=O)NCC(=O)O)[C@@H](C)CC (X1-AGERG-OH) | 403 | 
CCOP(=O)(O)N[C@H](C(=O)N[C@@H](C)C(=O)NCC(=O)N[C@@H](CCC(=O)O)C(=O)N[C@@H](CCCNC(=N)N[N+](=O)[O-])C(=O)NCC(=O)O)[C@@H](C)CC (X1-AGE[Arg(NO2)]G-OH) | 270 | 
CCOP(=O)(O)N[C@H](C(=O)N[C@@H](C)C(=O)NCC(=O)N[C@@H](CCC(N)=O)C(=O)N[C@@H](CCCNC(=N)N)C(=O)NCC(=O)O)[C@@H](C)CC (X1-AGQRG-OH) | 460 | 
CCOP(=O)(O)N[C@H](C(=O)N[C@@H](C)C(=O)NCC(=O)N[C@@H](CCC(N)=O)C(=O)N[C@@H](CCCNC(=N)N[N+](=O)[O-])C(=O)O)[C@@H](C)CC (X1-AGQ[Arg(NO2)]-OH) | 1900 | 
